For one experiment, the target named is D816V KIT (Homo sapiens (Human), UniProt P10721, D816V). Briefly: KIT D816V assay at Km (Caliper electrophoretic mobility shift). The conditions noted are these: biochemical, 15 uM ATP (Km), 90 minutes at 25 C; read-out: INH KIT D816V.
A further experiment addresses PDGFRA D842V (Homo sapiens (Human), UniProt P16234, D842V). Briefly: PDGFRA D842V assay at Km (Caliper electrophoretic mobility shift). The note with it: biochemical, 15 uM ATP (Km), 90 minutes at 25 C; read-out: INH PDFGRA D842V.
Experiment [1] has as its target KIT D816V kinase activity (KIT autophosphorylation at tyrosine 719) in HMC1.2 cells (Homo sapiens (Human), UniProt P10721, D816V/V560G). Briefly: HMC1.2 autophosphorylation assay (phospho-Y719 c-KIT AlphaLISA). It is filed as cell-based. The conditions noted are these: HMC1.2 mast cell leukemia cell line (KIT V560G, D816V), 90 minutes compound; read-out: INH-KIT-PHOS-HMC1.2.

Each structure is given as a SMILES string.

Sequence of PDGFRA D842V (P16234 24-1089 D842V): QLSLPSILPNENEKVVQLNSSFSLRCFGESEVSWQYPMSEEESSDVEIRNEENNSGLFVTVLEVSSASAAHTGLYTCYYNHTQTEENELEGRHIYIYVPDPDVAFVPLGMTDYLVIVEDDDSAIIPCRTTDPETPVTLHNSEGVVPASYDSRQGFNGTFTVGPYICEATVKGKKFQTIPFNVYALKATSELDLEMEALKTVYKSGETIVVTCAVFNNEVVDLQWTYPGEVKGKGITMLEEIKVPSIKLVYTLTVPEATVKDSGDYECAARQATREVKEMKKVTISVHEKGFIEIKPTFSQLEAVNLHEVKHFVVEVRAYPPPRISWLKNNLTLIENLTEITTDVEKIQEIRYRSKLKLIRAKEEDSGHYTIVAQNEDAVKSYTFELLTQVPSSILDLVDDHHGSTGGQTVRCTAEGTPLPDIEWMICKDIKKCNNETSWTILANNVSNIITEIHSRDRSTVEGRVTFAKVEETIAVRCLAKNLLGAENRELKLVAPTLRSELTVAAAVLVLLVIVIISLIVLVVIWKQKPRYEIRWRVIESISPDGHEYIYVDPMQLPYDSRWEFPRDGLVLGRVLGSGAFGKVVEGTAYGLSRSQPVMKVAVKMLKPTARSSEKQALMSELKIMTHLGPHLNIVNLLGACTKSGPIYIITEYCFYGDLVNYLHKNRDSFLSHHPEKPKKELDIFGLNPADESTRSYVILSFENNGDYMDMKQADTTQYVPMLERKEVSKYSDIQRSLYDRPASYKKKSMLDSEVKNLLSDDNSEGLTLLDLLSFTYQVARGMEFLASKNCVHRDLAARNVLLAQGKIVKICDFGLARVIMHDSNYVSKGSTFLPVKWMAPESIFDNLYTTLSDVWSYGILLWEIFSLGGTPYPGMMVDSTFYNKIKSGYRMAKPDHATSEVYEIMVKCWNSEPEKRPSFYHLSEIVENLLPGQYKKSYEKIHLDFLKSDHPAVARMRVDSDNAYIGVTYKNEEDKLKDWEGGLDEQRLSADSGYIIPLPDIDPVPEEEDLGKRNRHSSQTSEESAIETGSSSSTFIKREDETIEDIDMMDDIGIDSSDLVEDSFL
Sequence of D816V KIT (P10721 26-976 D816V): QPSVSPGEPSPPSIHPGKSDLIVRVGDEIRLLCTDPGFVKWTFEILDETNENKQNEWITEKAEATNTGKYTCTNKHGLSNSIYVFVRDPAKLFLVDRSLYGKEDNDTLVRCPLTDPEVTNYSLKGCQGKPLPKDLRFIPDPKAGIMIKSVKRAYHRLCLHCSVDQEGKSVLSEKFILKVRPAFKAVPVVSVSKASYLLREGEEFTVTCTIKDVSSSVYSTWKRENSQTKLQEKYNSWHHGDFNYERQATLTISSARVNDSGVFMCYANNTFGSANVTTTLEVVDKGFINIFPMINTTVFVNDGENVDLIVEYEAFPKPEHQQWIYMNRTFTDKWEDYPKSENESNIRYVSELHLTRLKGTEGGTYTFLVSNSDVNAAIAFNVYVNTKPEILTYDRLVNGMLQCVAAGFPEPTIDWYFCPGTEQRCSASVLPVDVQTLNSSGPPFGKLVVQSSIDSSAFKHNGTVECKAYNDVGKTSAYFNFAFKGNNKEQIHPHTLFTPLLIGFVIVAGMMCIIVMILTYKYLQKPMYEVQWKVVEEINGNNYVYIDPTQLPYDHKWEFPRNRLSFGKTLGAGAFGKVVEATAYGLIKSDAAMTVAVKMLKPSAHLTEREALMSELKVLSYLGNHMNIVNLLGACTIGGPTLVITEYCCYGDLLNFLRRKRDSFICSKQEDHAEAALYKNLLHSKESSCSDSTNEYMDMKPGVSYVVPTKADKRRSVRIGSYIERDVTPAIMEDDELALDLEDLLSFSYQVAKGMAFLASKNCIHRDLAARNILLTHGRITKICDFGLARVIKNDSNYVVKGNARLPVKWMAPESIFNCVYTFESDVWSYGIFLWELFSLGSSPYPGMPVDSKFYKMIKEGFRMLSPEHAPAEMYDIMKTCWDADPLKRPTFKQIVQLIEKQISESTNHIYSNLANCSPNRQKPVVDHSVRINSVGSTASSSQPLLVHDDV
Sequence of KIT D816V kinase activity (KIT autophosphorylation at tyrosine 719) in HMC1.2 cells (P10721 26-976 V560G/D816V): as the sequence (P10721 26-976 D816V) above, with V535G counted along it

Consider `CC[C@@H](c1ccc(F)cc1)c1cnc(N2CCN(c3ncnn4cc(-c5cnn(C)c5)cc34)CC2)nc1` (single isomer, unassigned) [Compound 41], for which the IC50 on D816V KIT lay within 1.01 to 10 nM; at PDGFRA D842V, 1.01 to 10 nM; in experiment [1], 50 to 100 nM.
For the compound `C[C@H](c1ccccc1)c1cnc(N2CCN(c3ncnn4cc(-c5cnn(C)c5)cc34)CC2)nc1` [Compound 9, (R)-6-(1-methyl-1H-pyrazol-4-yl)-4-(4-(5-(1-phenylethyl)pyrimidin-2-yl)piperazin-1-yl)pyrrolo[1,2-f][1,2,4]triazine], the IC50 on D816V KIT is 1.01 to 10 nM; on PDGFRA D842V, 1.01 to 10 nM; in experiment [1], below 50 nM.
Take `C[C@@H](c1ccccc1)c1cnc(N2CCN(c3ncnn4cc(-c5cnn(C)c5)cc34)CC2)nc1` [Compound 10, (S)-6-(1-methyl-1H-pyrazol-4-yl)-4-(4-(5-(1-phenylethyl)pyrimidin-2-yl)piperazin-1-yl)pyrrolo[1,2-f][1,2,4]triazine]: the IC50 is below 1 nM on D816V KIT, below 1 nM on PDGFRA D842V and below 50 nM in experiment [1].
For the compound `Cn1cc(-c2cc3c(N4CCN(c5ncc(Cc6ccc(F)cc6)cn5)CC4)ncnn3c2)cn1` [Compound 14], the results for the IC50 (on D816V KIT; on PDGFRA D842V; in experiment [1]) were below 1 nM, 1.01 to 10 nM and below 50 nM, respectively.
In the same order, the values of `COc1ccc(-c2cc3c(N4CCN(c5ncc(Cc6ccccc6)cn5)CC4)ncnn3c2)cc1` [Compound 18] are 10 to 100 nM, 10 to 100 nM and above 10000 nM.
In the same order, the values of `Cn1cc(-c2cc3c(N4CCN(c5ncc(C(C)(C)c6ccccc6)cn5)CC4)ncnn3c2)cn1` [Compound 20] are 1.01 to 10 nM, 1.01 to 10 nM and below 50 nM.
Consider `Cn1cc(-c2cc3c(N4CCN(c5ncc([C@](C)(N)c6ccccc6)cn5)CC4)ncnn3c2)cn1` [Compound 21], for which the IC50 was 1.01 to 10 nM on D816V KIT, below 1 nM on PDGFRA D842V and 50 to 100 nM in experiment [1].
In the same order, the values of `Cn1cc(-c2cc3c(N4CCN(c5ncc([C@@](C)(N)c6ccccc6)cn5)CC4)ncnn3c2)cn1` [Compound 22] are below 1 nM, below 1 nM and below 50 nM.
With `C[C@](N)(c1ccc(F)cc1)c1cnc(N2CCN(c3ncnn4cc(-c5cn[nH]c5)cc34)CC2)nc1` [Compound 26], the IC50 at D816V KIT was below 1 nM; on PDGFRA D842V it was below 1 nM; in experiment [1], below 50 nM.
`C[C@@](O)(c1ccc(F)cc1)c1cnc(N2CCN(c3ncnn4cc(-c5cn[nH]c5)cc34)CC2)nc1` [Compound 29]: the IC50 fell in the range of 1.01 to 10 nM on D816V KIT, 1.01 to 10 nM at PDGFRA D842V and 50 to 100 nM in experiment [1].
As to `C[C@](O)(c1ccc(F)cc1)c1cnc(N2CCN(c3ncnn4cc(-c5cn[nH]c5)cc34)CC2)nc1` [Compound 30], the IC50 at D816V KIT is below 1 nM; at PDGFRA D842V, below 1 nM; in experiment [1], below 50 nM.
On to `C[C@](N)(c1ccccc1)c1cnc(N2CCN(c3ncnn4cc(-c5ccc(F)cc5)cc34)CC2)nc1` [Compound 34], for which the IC50 on D816V KIT is below 1 nM; on PDGFRA D842V it was below 1 nM; in experiment [1] it was 50 to 100 nM.
As to `CCn1cc(-c2cc3c(N4CCN(c5ncc([C@@](C)(N)c6ccccc6)cn5)CC4)ncnn3c2)cn1` [Compound 35], the IC50 at D816V KIT is below 1 nM; on PDGFRA D842V, below 1 nM; in experiment [1] it was below 50 nM.
For the compound `C[C@](O)(c1ccc(F)cc1)c1cnc(N2CCN(c3ncnn4cc(-c5ccccc5)cc34)CC2)nc1` [Compound 38], the IC50 on D816V KIT lay in the range of 1.01 to 10 nM; on PDGFRA D842V it was 1.01 to 10 nM; in experiment [1], 50 to 100 nM.
Take `Cn1cc(-c2cc3c(N4CCN(c5ncc(C(C)(C)c6ccc(F)cc6)cn5)CC4)ncnn3c2)cn1` [Compound 39]: the IC50 on D816V KIT was 1.01 to 10 nM; on PDGFRA D842V, below 1 nM; in experiment [1], below 50 nM.
For `C[C@@](O)(c1cnc(N2CCN(c3ncnn4cc(-c5cn[nH]c5)cc34)CC2)nc1)c1ccc(F)cc1F` [Compound 58], the IC50 on D816V KIT and at PDGFRA D842V was below 1 nM each time.
Turning to `C[C@@H](c1ccc(F)cc1)c1cnc(N2CCN(c3ncnn4cc(-c5cnn(C)c5)cc34)C[C@H]2CO)nc1` [Compound 73], the IC50 on D816V KIT was 1.01 to 10 nM; in experiment [1], below 50 nM.
For the compound `C[C@H](c1ccc(F)cc1)c1cnc(N2CCN(c3ncnn4cc(-c5cnn(C)c5)cc34)C[C@H]2CO)nc1` [Compound 74], the values for the IC50 (at D816V KIT; in experiment [1]) were 1.01 to 10 nM and 50 to 100 nM, respectively.
For `CCn1cc(-c2cc3c(N4CCN(c5ncc([C@@](C)(O)c6ccc(F)cc6)cn5)CC4)ncnn3c2)cn1` [Compound 75] the same measures were below 1 nM and below 50 nM.
For `Cc1ccc(-c2cc3c(N4CCN(c5ncc([C@](C)(O)c6ccc(F)cc6)cn5)CC4)ncnn3c2)s1` [Compound 81] the same measures were 10 to 100 nM and 1000 to 10000 nM.
Consider `Cc1ccc(-c2cc3c(N4CCN(c5ncc([C@@](C)(O)c6ccc(F)cc6)cn5)CC4)ncnn3c2)s1` [Compound 82], for which the IC50 at D816V KIT is 10 to 100 nM; in experiment [1] it was 100 to 1000 nM.
In the same order, the values of `Cn1cc(-c2cc3c(N4CCN(c5ncc([C@@](C)(O)c6ccc(Cl)cc6)cn5)CC4)ncnn3c2)cn1` [Compound 83] are below 1 nM and below 50 nM.
Take `Cn1cc(-c2cc3c(N4CCN(c5ncc([C@@](C)(N)c6ccc(F)cc6F)cn5)CC4)ncnn3c2)cn1` [Compound 85]: the IC50 at D816V KIT was below 1 nM; in experiment [1], below 50 nM.
In the same order, the values of `Cc1ncc(-c2cc3c(N4CCN(c5ncc([C@@](C)(O)c6ccc(F)cc6)cn5)CC4)ncnn3c2)s1` [Compound 88] are below 1 nM and below 50 nM.
Take `Cn1cc(-c2cn3ncnc(N4CCN(c5ncc([C@](C)(O)c6ccc(F)cc6)cn5)CC4)c3c2F)cn1` [Compound 89]: the IC50 on D816V KIT is above 100 nM; in experiment [1] it was 1000 to 10000 nM.
For `Cn1cc(-c2cn3ncnc(N4CCN(c5ncc([C@@](C)(O)c6ccc(F)cc6)cn5)CC4)c3c2F)cn1` [Compound 90] the same measures were above 100 nM and 1000 to 10000 nM.
In the same order, the values of `Cn1cc(-c2cc3c(N4CCN(c5ncc([C@](C)(O)c6c(F)cccc6F)cn5)CC4)ncnn3c2)cn1` [Compound 91] are below 1 nM and 50 to 100 nM.
For `Cn1cc(-c2cc3c(N4CCN(c5ncc([C@@](C)(O)c6c(F)cccc6F)cn5)CC4)ncnn3c2)cn1` [Compound 92] the same measures were 1.01 to 10 nM and below 50 nM.
For `Cn1cc(-c2cc3c(N4CCN(c5ncc([C@@](O)(CF)c6ccc(F)cc6)cn5)CC4)ncnn3c2)cn1` [Compound 95], the IC50 on D816V KIT is below 1 nM; in experiment [1], 50 to 100 nM.
For `Cn1cc(-c2cc3c(N4CCN(c5ncc(S(=O)(=O)c6ccc(F)cc6)cn5)CC4)ncnn3c2)cn1` [Compound 99] the same measures were 10 to 100 nM and 1000 to 10000 nM.
In the same order, the values of `COc1cccc(-c2cc3c(N4CCN(c5ncc([C@@](C)(O)c6ccc(F)cc6)cn5)CC4)ncnn3c2)c1` [Compound 101] are 10 to 100 nM and 50 to 100 nM.
In the same order, the values of `Cn1cc(-c2cc3c(N4CCN(c5ncc([C@](O)(c6ccc(F)cc6)C6CC6)cn5)CC4)ncnn3c2)cn1` [Compound 103] are 1.01 to 10 nM and 100 to 1000 nM.
Consider `Cn1cc(-c2cc3c(N4CCN(c5ncc([C@@](O)(c6ccc(F)cc6)C6CC6)cn5)CC4)ncnn3c2)cn1` [Compound 104], for which the figures for the IC50 (on D816V KIT; in experiment [1]) were 1.01 to 10 nM and 100 to 1000 nM, respectively.
For `C[C@H](O)Cn1cc(-c2cc3c(N4CCN(c5ncc(Sc6ccccc6F)cn5)CC4)ncnn3c2)cn1` [Compound 105] the same measures were 1.01 to 10 nM and below 50 nM.
For `Cn1cc(-c2cc3c(N4CCN(c5ncc(C(C)(C)c6c(F)cc(F)cc6F)cn5)CC4)ncnn3c2)cn1` [Compound 106] the same measures were 1.01 to 10 nM and below 50 nM.
For `Cn1cc(-c2cn3ncnc(N4CCN(c5ncc([C@@](C)(O)c6ccc(F)cc6)cn5)CC4)c3c2Cl)cn1` [Compound 108] the same measures were above 100 nM and 1000 to 10000 nM.
In the case of `Cn1cc(-c2cc3c(N4CCN(c5ncc([C@](C)(O)c6ccc(F)cc6Cl)cn5)CC4)ncnn3c2)cn1` [Compound 109], the IC50 lay in the range of 10 to 100 nM at D816V KIT and 100 to 1000 nM in experiment [1].
For `Cn1cc(-c2cc3c(N4CCN(c5ncc([C@@](C)(O)c6ccc(F)cc6Cl)cn5)CC4)ncnn3c2)cn1` [Compound 110] the same measures were 1.01 to 10 nM and below 50 nM.
On to `Cn1cc(-c2cc3c(N4CCN(c5ncc([C@](N)(c6ccc(F)cc6)C(F)F)cn5)CC4)ncnn3c2)cn1` [Compound 112], for which the values for the IC50 (on D816V KIT; in experiment [1]) were 1.01 to 10 nM and 100 to 1000 nM, respectively.
Regarding `Cn1cc(-c2cc3c(N4CCN(c5ncc([C@](C)(N)c6c(F)cc(F)cc6F)cn5)CC4)ncnn3c2)cn1` [Compound 113], the IC50 at D816V KIT was below 1 nM; in experiment [1], below 50 nM.
In the same order, the values of `Cn1cc(-c2cc3c(N4CCN(c5ncc([C@@](C)(N)c6c(F)cc(F)cc6F)cn5)CC4)ncnn3c2)cn1` [Compound 114] are below 1 nM and below 50 nM.
In the same order, the values of `Cn1cc(-c2cc3c(N4CCN(c5ncc([C@](O)(c6ccc(F)cc6)C(F)F)cn5)CC4)ncnn3c2)cn1` [Compound 118] are 1.01 to 10 nM and 100 to 1000 nM.
Consider `c1ccc(Cc2cnc(N3CCN(c4ncnn5cc(-c6cnn(C[C@@H]7CNCCO7)c6)cc45)CC3)nc2)cc1` [Compound 120], for which the values for the IC50 (at D816V KIT; in experiment [1]) were below 1 nM and 50 to 100 nM, respectively.
For `CC(C)(C)OC(=O)N1CC=C(c2cc3c(N4CCN(c5ncc([C@@](C)(O)c6ccc(F)cc6)cn5)CC4)ncnn3c2)CC1` [Compound 124] the same measures were 1.01 to 10 nM and below 50 nM.

The values above are taken from patent US10807985B2 (Blueprint Medicines Corporation, priority 2013, dated 2020).
